Laboratory results: a melting point compilation (Tetko et al.; mined from patent text by program, amines drawn as free bases though some values may be those of a salt)

Row | Compound | melting point [°C]
1 | CCOc1ccc([N+](=O)[O-])c(Nc2ccc(C(C)C)cc2)c1 | 100
2 | Nc1ncnc2c1ccn2C1C=CC(CO)C1 (configuration not stated) | 165 to 168
3 | COc1cc(Nc2c(C#N)cnc3cc(-c4ccc(CN5CCOCC5)nc4)ccc23)c(Cl)cc1Cl | 195 to 197
4 | N=C(NO)c1cccc(-c2ccc(O)c(-c3nc4cc(C(=N)NO)ccc4[nH]3)c2)c1 | 352 to 355
5 | CON=C(Cl)c1ccccc1S(=O)(=O)NC(=O)Nc1nc(C)cc(OC)n1 | 178 to 179
6 | CC(=O)N1CCN(Cc2cnc(-c3cc4cccc(N(C)S(=O)(=O)c5cccs5)c4[nH]3)s2)CC1 | 177 to 178
7 | O=C(C1CC1)N1CCC(C2CCc3ccc(O)cc32)CC1 (configuration not stated) | 75 to 82
8 | O=c1c2c(n(-c3cccc(Cl)c3)c3ncccc13)CCN(Cc1ccccc1)C2 | 157 to 161
9 | COC(=O)c1ccc(-c2cc(C)n(Cc3ccccc3)n2)o1 | 65 to 66
10 | N#Cc1cnc2c(oc3ccccc32)c1Nc1ccc(Cl)cc1F | 259 to 261
11 | Cc1cc(Nc2ncnc3ccc(-c4cccs4)cc23)ccc1OCc1ccccn1 | 205 to 206
12 | CC(C)Nc1cccnc1N1CCN(C(=O)c2ccc(C(=O)NCCOCCO)cn2)CC1 | 93 to 95
13 | Cc1onc(-c2ccc(-c3cscn3)cc2)c1-c1ccc(S(N)(=O)=O)cc1 | 112 to 115
14 | CCc1cccc2c3c([nH]c12)C(CC)(CC(=O)OC)OCC3O (configuration not stated) | 117 to 118
15 | CC#Cc1ccc(NC(=O)c2ccccc2NCc2ccncc2)cc1C(F)(F)F | 165 to 166
16 | CCOC(=O)c1c(CS(=O)(=O)c2nccn2C)nc2cc(OC)c(OC)cc2c1-c1ccc(OC)c(OC)c1 | 183 to 184
17 | CCOC(=O)c1cccc(C2(C(N)=O)C(=O)N(CC(=O)N(c3ccccc3)C(C)C)c3ccccc3N(c3ccccc3)C2=O)c1 (configuration not stated) | 187 to 188
18 | CN(C)CCc1ccc(N)cc1 | 40
19 | N#Cc1cccc2c3c([nH]c12)CCNC3 | 230 to 235
20 | CCOC(=O)/C=C/c1ccc(OS(=O)(=O)C(F)(F)F)c(Cl)c1 | 59 to 61
21 | O=CNCc1ccc(CN2CCN(c3ncccn3)CC2)cc1 | 97 to 98
22 | N#Cc1cccc(-c2ccc3c(c2)NC(=O)CO3)c1 | 242
23 | [N-]=[N+]=NS(=O)(=O)c1cc(C(=O)O)c(O)c(S(=O)(=O)N=[N+]=[N-])c1 | 184 to 186
24 | Cc1ccc(C(=O)NC(=O)Nc2ccc3c(c2)NC(=O)/C3=C\c2ccc[nH]2)cc1 | 276 to 281
25 | Cn1c(COc2cccc(C(=O)O)c2)nc2ccc(Oc3cccnc3)cc21 | 240 to 245

Row | Compound | melting point [°C]
26 | COc1ccc(-c2cc(=O)n(Cc3ccccc3)nc2-c2ccc(OC)c(F)c2)cc1F | 114 to 115
27 | CCCN1CCC23c4cccc(OC)c4OC2C2CCC3(C1=O)C(C(=O)OC)C2 (configuration not stated) | 126 to 128
28 | CN(C)C=Nc1ccc(-n2ncnc2-c2ccc(F)cc2)cc1 | 90 to 93
29 | O=C(CC1C(=O)CCc2ccccc21)c1ccccc1 (configuration not stated) | 48 to 52
30 | CC(C)n1nc(-c2nc(Oc3ccc(F)cc3)c(N)nc2-c2ccccc2)ccc1=O | 173 to 175
31 | Cc1c(OCC(F)(F)F)ccnc1CS(=O)c1nc2cc(N3CCCCC3)c(F)cc2[nH]1 (configuration not stated) | 99 to 100
32 | COc1ccc(C2(C#Cc3cccc(NC(C)=O)c3)CCCC(=O)C2)cc1OC1CCCC1 (configuration not stated) | 58 to 60
33 | CCOC(=O)c1cc(=O)cc(-c2ccc([N+](=O)[O-])cc2)o1 | 160 to 162
34 | CC(C)CC(NC(=O)OCc1ccccc1)C(=O)NC(C#N)COCc1ccccc1 (configuration not stated) | 126 to 127
35 | O=C(NC1CCc2ccccc21)c1ccc2cnccc2n1 (configuration not stated) | 156 to 157
36 | N#CC(C(=O)Nc1ccc(Cl)cc1)C(=O)c1ccc[nH]1 (configuration not stated) | 219 to 221
37 | Cc1ccc(-c2cn(C)cc(-c3cccc(C(F)(F)F)c3)c2=O)cc1C | 150 to 153
38 | CCOC(=O)C1=C(Nc2ccccc2)CN(C(=O)c2ccccc2)C1 | 149 to 151
39 | O=c1[nH]c2nc(Cl)nc(Cl)c2s1 | 191 to 192
40 | Cc1c(Nc2c(C#N)cncc2-c2cc3cc(CN4CCCCC4)ccc3s2)ccc2[nH]ccc12 | 174 to 175
41 | CCCCCC(=O)N(C)Cc1cc(-c2ccc(C[C@H](OCC)C(=O)O)cc2)cs1 | 65
42 | Cc1c(C)c2c(c(C)c1O)CC[C@@](C)(CCO)O2 | 155
43 | CC(=O)CC1=C(O)CCCC1=O | 80 to 81
44 | Cc1nc(C)c(Cc2cccs2)c(NCc2ccc(-c3ccccc3-c3nnn[nH]3)cc2)n1 | 262 to 263
45 | CCCOc1ccc(C2=NN(C(=S)Nc3ccc(C(F)(F)F)cc3)CC2NCC(=O)OC)cc1 (configuration not stated) | 167 to 169
46 | CCOC(=O)Cn1cc(Cl)cnc1=O | 175 to 177
47 | C[C@H]1CC[C@H]2C(C)(C)[C@@H](O)[C@@H](OS(=O)(=O)c3ccccc3)C[C@]23Oc2c(c(O)cc4c2CNC4=O)C[C@]13C | 142 to 144
48 | O=C(Oc1ccccc1)c1cc([N+](=O)[O-])c2ccccc2c1O | 157
49 | CCN(CC)CCNC(=O)c1cccc2c(=O)c(C)c(-c3cccc(Cl)c3)oc12 | 116 to 117
50 | O=C(c1ccc(O)cc1)c1c(Cc2ccccc2)oc2ccccc12 | 146 to 149

Row | Compound | melting point [°C]
51 | COCCc1nc2c(N)nc3ccccc3c2n1CCOCCN(C)C(=O)C1CCCCC1 | 52 to 57
52 | CC(C)(C)OC(=O)NCC(COC(C(F)(F)F)(C(F)(F)F)C(F)(F)F)(COC(C(F)(F)F)(C(F)(F)F)C(F)(F)F)C(=O)O | 128 to 130
53 | CCOC1=NC(N)=C(C(=O)OC)C(c2cccc([N+](=O)[O-])c2)C1C(=O)OC (configuration not stated) | 163
54 | COC=C(C(=O)OC)c1csc2ccc(C=Cc3ccccc3)cc12 | 180 to 181
55 | CC(Cc1cc2ccccc2[nH]1)(NC(=O)OC1C2CC3CC(C2)CC1C3)C(=O)NCC(N)c1ccccc1 (configuration not stated) | 96 to 102
56 | CN1CCN(CCCOc2ccccc2Nc2nc(C#N)nc3c2ncn3C2CCCC2)CC1 | 136 to 138
57 | Cc1cc(NC(=O)CCc2cccs2)cc(C)c1O | 158 to 159
58 | Nc1ccnn1-c1c(F)c(F)c(C(F)(F)F)c(F)c1F | 103 to 104
59 | Cn1cc(C(=O)NCc2ccc(Cl)cc2)c(=O)c2sc(CO)c(COCC[Si](C)(C)C)c21 | 193 to 194
60 | COC(=O)c1cc(C(=O)N2CCSCC2)c2cc(Cc3ccc(F)cc3)cnc2c1O | 184 to 185
61 | Cc1c(I)c(=O)n(C)c(=O)n1C | 155 to 157
62 | CC(=O)NNc1nc(C(F)(F)F)nc(-c2ccc(S(C)(=O)=O)cc2)c1-c1ccc(Cl)cc1 | 254 to 256
63 | CC1=C(O)C(=O)C(C)(C(O)Cc2ccccc2)O1 (configuration not stated) | 158 to 159
64 | CCCCNc1cc(C#N)cc(S(N)(=O)=O)c1Oc1ccccc1 | 217 to 218
65 | COc1ccc(C(=O)Nc2ccc(Cl)cc2)cc1NC(=S)Nc1cc(Cl)cc(Cl)c1 | 180 to 185
66 | COC(=O)c1ccc(CN2CCN(c3nc(C)cs3)C2=O)cc1 | 157 to 158
67 | O=S(=O)(c1cccc(-c2cc(-c3nc(-c4ccc(C(F)(F)F)cc4)cc(C(F)(F)F)n3)ccn2)c1)N(CCO)CCO | 186
68 | C=CS(=O)(=O)CCC(F)(F)C(F)(F)C(F)(F)C(F)(F)C(F)(F)C(F)(F)C(F)(F)C(F)(F)F | 96 to 97
69 | CC(C)n1nc(-c2c(-c3ccccc3)nn3ccc(N4CCN(C(=O)N(C)C)CC4)cc23)ccc1=O | 160 to 161
70 | CCC1c2cccn2-c2ccc(Br)cc2N1S(=O)(=O)c1ccc(O)cc1 (configuration not stated) | 206 to 208
71 | COC(=O)c1ccc(NC(=O)[C@H](Cc2ccccc2)NC(=O)OC(C)(C)C)cc1 | 173 to 175
72 | CCNc1ccnc(Cl)c1 | 55 to 57
73 | CN(C(=O)c1cc(-c2ccccc2)c2sccc2c1)c1ccccc1 | 127
74 | O=C(c1ccc(F)cc1)C1CCN(CCN2C(=O)Nc3ccc(Cl)cc3C2c2ccccc2)CC1 (configuration not stated) | 196
75 | Cc1c(C#N)sc(N=Nc2c(NCCO)nc(NCCO)c(C#N)c2C)c1C#N | 268 to 269

Row | Compound | melting point [°C]
76 | O=Cc1ccc2oc(-c3ccc4ccc(Cl)cc4n3)cc2c1 | 235 to 236
77 | CNC(=O)OC1CC(C)(C)N(C)C(C)(C)C1 | 96 to 97
78 | N#CC1=C(Nc2cc(F)cc(F)c2)CCC1 | 113 to 115
79 | Cc1cc(-n2cnn(Cc3ccc(F)cc3)c2=O)sc1C(=O)NCc1cnn(C)c1 | 168 to 170
80 | COc1ccc2cc(-c3cc4ccccc4o3)ccc2c1 | 194 to 195
81 | CNC(=O)NC1OCC(OC(C)=O)C(OC(C)=O)C1OC(C)=O (configuration not stated) | 170 to 172
82 | CC(=O)c1ccc(S(=O)(=O)NCCN2CCOCC2)cc1 | 128 to 129
83 | COC(=O)C1=C(C)NN=C(c2cccc(Cl)c2)C1c1ccccc1 (configuration not stated) | 176
84 | C[Si](C)(C)c1ccc(C(=O)Nc2nnn[nH]2)o1 | 247 to 248
85 | O=[N+]([O-])c1ccc(-c2nsc(Cl)n2)cc1 | 143 to 145
86 | Nc1ccc(C(=O)c2ccccc2)cc1COC1CCCCO1 (configuration not stated) | 164
87 | CCSc1nc(N)c(C(N)=S)s1 | 180 to 183
88 | CCCOc1cccc2c1OCN(CCc1ccccc1)C2 | 84
89 | Cc1cc(Oc2ccc(-c3ccn(CC4CC4)c(=O)c3C#N)cc2F)cc(C)n1 | 201
90 | N#Cc1cccc(-n2c(=O)c(C(=O)Cc3ccccc3)c(O)c3cccnc32)c1 | 216 to 218
91 | O=C(Nc1ccc(S(=O)(=O)c2ccccn2)cc1)C(O)(C(F)F)C(F)F | 200 to 202
92 | CCCCCCCCCCCCOc1ccc(-c2cc3ccccc3[nH]2)cc1OC | 104
93 | CCCC[C@H](NC(=O)[C@H](CC(C)C)NC(=O)c1ccc(C(F)(F)F)cc1)C(=O)CSCc1ccco1 | 121 to 123
94 | Cn1ncc(N)c1C(N)=O | 158 to 160
95 | Cc1ccc(C)c(OCCCC(C)(C)C(=O)Nc2cccc(N)c2)c1 | 93 to 94
96 | CC(C)(C)c1cc(-c2nnc(NC(N)=S)s2)cc(C(C)(C)C)c1O | > 80
97 | O=C(CCc1nc(-c2ccc(Cl)cc2)co1)OC(c1ccccc1)c1ccccc1 | 94 to 95
